Source: patent US10533000B2, “Metabotrophic glutamate receptor 5 modulators and methods of use thereof” (Sunovion Pharmaceuticals, Inc., priority 2011, dated 2020)

molecular target: mGluR5 (Homo sapiens, UniProt P41594); test: mGluR5 positive allosteric modulator (PAM) functional assay; assay type: cell-based
Sequence (P41594 21-1212): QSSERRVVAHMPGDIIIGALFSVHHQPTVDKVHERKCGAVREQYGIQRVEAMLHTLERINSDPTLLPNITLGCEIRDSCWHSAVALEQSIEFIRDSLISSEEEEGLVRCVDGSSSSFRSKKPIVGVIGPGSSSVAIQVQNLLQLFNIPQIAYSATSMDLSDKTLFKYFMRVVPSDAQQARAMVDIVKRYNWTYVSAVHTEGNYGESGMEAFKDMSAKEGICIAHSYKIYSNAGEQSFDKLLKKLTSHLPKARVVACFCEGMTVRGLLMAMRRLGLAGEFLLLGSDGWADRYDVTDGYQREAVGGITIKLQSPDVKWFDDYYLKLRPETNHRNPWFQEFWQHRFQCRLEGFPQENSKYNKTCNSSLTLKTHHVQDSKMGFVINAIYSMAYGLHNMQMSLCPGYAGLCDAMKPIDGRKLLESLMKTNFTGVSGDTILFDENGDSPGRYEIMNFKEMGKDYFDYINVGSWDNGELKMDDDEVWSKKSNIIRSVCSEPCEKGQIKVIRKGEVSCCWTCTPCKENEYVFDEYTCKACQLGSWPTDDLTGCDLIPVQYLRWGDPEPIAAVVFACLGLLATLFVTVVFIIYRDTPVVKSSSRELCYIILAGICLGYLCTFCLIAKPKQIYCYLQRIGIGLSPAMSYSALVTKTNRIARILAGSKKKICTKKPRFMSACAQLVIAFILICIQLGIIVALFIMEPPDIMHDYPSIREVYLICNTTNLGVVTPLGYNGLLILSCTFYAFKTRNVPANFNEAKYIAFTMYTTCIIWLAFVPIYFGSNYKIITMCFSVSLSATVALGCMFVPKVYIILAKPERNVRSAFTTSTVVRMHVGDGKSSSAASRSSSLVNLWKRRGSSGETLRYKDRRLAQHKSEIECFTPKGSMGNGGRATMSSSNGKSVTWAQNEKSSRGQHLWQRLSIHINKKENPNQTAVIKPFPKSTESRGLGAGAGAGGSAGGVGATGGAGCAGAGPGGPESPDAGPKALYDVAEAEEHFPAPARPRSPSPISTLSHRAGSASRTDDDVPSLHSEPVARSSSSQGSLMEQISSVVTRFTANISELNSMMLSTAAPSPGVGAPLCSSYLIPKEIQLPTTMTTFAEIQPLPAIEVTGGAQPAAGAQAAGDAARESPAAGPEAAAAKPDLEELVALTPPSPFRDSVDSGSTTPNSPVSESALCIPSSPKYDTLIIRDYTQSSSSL

SMILES	EC50 [nM]
CC(C)NC(C)c1nc(-c2ccc(C#Cc3ccccn3)cn2)no1 (stereo not drawn) [Compound 140, N-(1-(3-(5-(pyridin-2-ylethynyl)pyridin-2-yl)-1,2,4-oxadiazol-5-yl)ethyl)propan-2-amine]	100 to 300
CC(c1nc(-c2ccc(C#Cc3ccccn3)cn2)no1)N1CCCC1 (stereo not drawn) [Compound 142, 3-(5-(pyridin-2-ylethynyl)pyridin-2-yl)-5-(1-(pyrrolidin-1-yl)ethyl)-1,2,4-oxadiazole]	30 to 100
CC(c1nc(-c2ccc(C#Cc3ccccn3)cn2)no1)N(C)C (stereo not drawn) [Compound 143, N,N-dimethyl-1-(3-(5-(pyridin-2-ylethynyl)pyridin-2-yl)-1,2,4-oxadiazol-5-yl)ethanamine]	100 to 300
CNC(C)(C)c1nc(-c2ccc(C#Cc3ccccn3)cn2)no1 [Compound 144, N-methyl-2-(3-(5-(pyridin-2-ylethynyl)pyridin-2-yl)-1,2,4-oxadiazol-5-yl)propan-2-amine]	300 to 1000
CN(C)C(C)(C)c1nc(-c2ccc(C#Cc3ccccn3)cn2)no1 [Compound 145, N,N-dimethyl-2-(3-(5-(pyridin-2-ylethynyl)pyridin-2-yl)-1,2,4-oxadiazol-5-yl)propan-2-amine]	30 to 100
CCOC(=O)NC(CC)c1nc(-c2ccc(C#Cc3ccccn3)cn2)no1 (stereo not drawn) [Compound 146, ethyl (1-(3-(5-(pyridin-2-ylethynyl)pyridin-2-yl)-1,2,4-oxadiazol-5-yl)propyl)carbamate]	100 to 300
CCC(c1nc(-c2ccc(C#Cc3ccccn3)cn2)no1)N(C)C (stereo not drawn) [Compound 148, N,N-dimethyl-1-(3-(5-(pyridin-2-ylethynyl)pyridin-2-yl)-1,2,4-oxadiazol-5-yl)propan-1-amine]	30 to 100
CCC(NC1CC1)c1nc(-c2ccc(C#Cc3ccccn3)cn2)no1 (stereo not drawn) [Compound 149, N-(1-(3-(5-(pyridin-2-ylethynyl)pyridin-2-yl)-1,2,4-oxadiazol-5-yl)propyl)cyclopropanamine]	300 to 1000
CN1CCC1c1nc(-c2ccc(C#Cc3ccccn3)cn2)no1 (stereo not drawn) [Compound 150, 5-(1-methylazetidin-2-yl)-3-(5-(pyridin-2-ylethynyl)pyridin-2-yl)-1,2,4-oxadiazole]	300 to 1000
C(#Cc1ccccn1)c1ccc(-c2noc(C3CCCN3)n2)nc1 (stereo not drawn) [Compound 151, 3-(5-(pyridin-2-ylethynyl)pyridin-2-yl)-5-(pyrrolidin-2-yl)-1,2,4-oxadiazole]	300 to 1000
CN1C(c2nc(-c3ccc(C#Cc4ccccn4)cn3)no2)CCC1(C)C (stereo not drawn) [Compound 153, 3-(5-(pyridin-2-ylethynyl)pyridin-2-yl)-5-(1,5,5-trimethylpyrrolidin-2-yl)-1,2,4-oxadiazole]	30 to 100
CN1CC(F)(F)C[C@@H]1c1nc(-c2ccc(C#Cc3ccccn3)cn2)no1 [Compound 154, (R)-5-(4,4-difluoro-1-methylpyrrolidin-2-yl)-3-(5-(pyridin-2-ylethynyl)pyridin-2-yl)-1,2,4-oxadiazole]	300 to 1000
CN1CC(F)(F)C[C@H]1c1nc(-c2ccc(C#Cc3ccccn3)cn2)no1 [Compound 155, (S)-5-(4,4-difluoro-1-methylpyrrolidin-2-yl)-3-(5-(pyridin-2-ylethynyl)pyridin-2-yl)-1,2,4-oxadiazole]	100 to 300
CN1C[C@@H](F)C[C@@H]1c1nc(-c2ccc(C#Cc3ccccn3)cn2)no1 [Compound 156, 5-((2R,4S)-4-fluoro-1-methylpyrrolidin-2-yl)-3-(5-(pyridin-2-ylethynyl)pyridin-2-yl)-1,2,4-oxadiazole]	300 to 1000
CCC(C)c1nc(-c2ccc(C#Cc3ccncc3)cn2)no1 (stereo not drawn) [Compound 158, 5-(sec-butyl)-3-(5-(pyridin-4-ylethynyl)pyridin-2-yl)-1,2,4-oxadiazole]	≤ 30
COC(C)c1nc(-c2ccc(C#Cc3ccncc3)cn2)no1 (stereo not drawn) [Compound 159, 5-(1-methoxyethyl)-3-(5-(pyridin-4-ylethynyl)pyridin-2-yl)-1.2.4-oxadiazole]	100 to 300
CCC(CC)c1nc(-c2ccc(C#Cc3ccncc3)cn2)no1 [Compound 160, 5-(pentan-3-yl)-3-(5-(pyridin-4-ylethynyl)pyridin-2-yl)-1,2,4-oxadiazole]	30 to 100
CCC(OC)c1nc(-c2ccc(C#Cc3ccncc3)cn2)no1 (stereo not drawn) [Compound 161, 5-(1-methoxypropyl)-3-(5-(pyridin-4-ylethynyl)pyridin-2-yl)-1,2,4-oxadiazole]	30 to 100
C(#Cc1ccc(-c2noc(C3CCCN3)n2)nc1)c1ccccc1 (stereo not drawn) [Compound 165, 3-(5-(phenylethynyl)pyridin-2-yl)-5-(pyrrolidin-2-yl)-1,2,4-oxadiazole]	300 to 1000
Clc1cccc(C#Cc2ccc(-c3noc(C4CCCN4)n3)nc2)c1 (stereo not drawn) [Compound 166, 3-(5-((3-chlorophenyl)ethynyl)pyridin-2-yl)-5-(pyrrolidin-2-yl)-1,2,4-oxadiazole]	300 to 1000
CN1C[C@H](F)C[C@@H]1c1nc(-c2ccc(C#Cc3ccccn3)cn2)no1 [Compound 169, 5-((2R,4R)-4-fluoro-1-methylpyrrolidin-2-yl)-3-(5-(pyridin-2-ylethynyl)pyridin-2-yl)-1,2,4-oxadiazole]	300 to 1000
C(#Cc1ccccn1)c1ccc(-c2noc(C34CCCN3CCC4)n2)nc1 [Compound 170, 5-(hexahydro-1H-pyrrolizin-7a-yl)-3-(5-(pyridin-2-ylethynyl)pyridin-2-yl)-1,2,4oxadiazole]	30 to 100
CN1CC[C@@H]2C[C@@]21c1nc(-c2ccc(C#Cc3ccccn3)cn2)no1 [Compound 172, 5-((1S,5R)-2-methyl-2-azabicyclo[3.1.0]hexan-1-yl)-3-(5-(pyridin-2-ylethynyl)pyridin-2-yl)-1,2,4-oxadiazole]	300 to 1000
C(#Cc1ccccn1)c1ccc(-c2noc(C3CC4CCN3C4)n2)nc1 (stereo not drawn) [Compound 174, 5-(1-azabicyclo[2.2.1]heptan-2-yl)-3-(5-(pyridin-2-ylethynyl)pyridin-2-yl)-1,2,4-oxadiazole]	100 to 300
